Assay results: patent publication US8278265B2, “Methods, kits and compositions comprising crotamine” (Fundacao de Amparo a Pesquisa do Estado de Sao Paulo—FAPESP, priority 2005, dated 2012)
Ends that are not written are not given here.

How the values were obtained:
mice = experiment: Paralysis of the hind legs of mice after intraperitoneal injection; assay type: in vivo; settings: sublethal dose, 50 μg of the conjugate (2.5 mg of toxin/kg) intraperitoneally, mouse
Procedure: When injected intraperitoneally, crotamine causes a quick paralysis, in less than 15 minutes, of the hind legs of mice, which is the typical physiological effect of this toxin.
Crotamine (1 mg) was suspended in 1 ml buffer (100 mM sodium carbonate/bicarbonate, pH 9.3) and conjugated to the fluorescent dye Cy3, a cyanine derivative supplied as a bifunctional form of an NHS-type ester in the Fluorolink Cy3 dye pack kit (Amersham Biosciences). To verify if Cy3-crotamine is biologically active, a sublethal dose, 50 μg of the conjugate (corresponding to 2.5 mg of toxin/kg) was intraperitoneally injected into a mouse. The crotamine linked to Cy3 complex caused the typical paralysis response of the hind legs in less than 15 minutes after injection.

blastocyts = experiment: Internalization of Cy3-conjugated crotamine in blastocysts in vitro; assay type: cell-based, murine; settings: cell cytoplasm, FIG. 1
Procedure: Embryonic bodies (EBs) were obtained by the hanging drop method, as described above, using culture medium containing crotamine at various concentrations (100 μM to 0.1 μM), changing the medium every two to three days. To analyze the crotamine location in EBs under development, crotamine was substituted with crotamine linked to Cy3 (Cy3-crotamine) during the final 24 hours of incubation. Compact murine morulae (8-16 cells) were obtained from the oviduct and cultivated for 24 hours at 37° C. in 5% CO2, in individual microwells of V-bottom plates (Costar) with […] microwells in M16 medium (supplier: Sigma) and Cy3-crotamine (1-0.1 μM). After 24 hours of culture, normally developed blastocyst numbers were compared within the control and the experimental group.

[1] = system: cells from the peritoneal liquid and from the murine bone marrow; experiment: In vivo incorporation of Cy3-crotamine after intraperitoneal injection; set-up: species or system CD-1 strain mice
Procedure: In vitro assay: Semiconffluent cultures of pluripotent and differentiation ES cells (homogeneous cell population), as well as other cell cultures of normal and tumor origin, were kept in small laminar slides placed in 24-well plates containing appropriate culture medium. Cells were incubated for 2-3 minutes to 72 hours in the presence of Cy3-crotamine, under concentrations between 10 μM and 0.01 μM, or as control, just in the presence of the dye agent Cy3 diluted in 1 ml PBS (control). In in vivo assays, 1 ml of 1 μM Cy3-crotamine or the pure control dye agent Cy3 (1 ml) in PBS were intraperitoneally injected into a mouse (line CD-1). After 3 hours, cells from the bone marrow (mixed cell population), spleen and peritoneal liquid (mixed cell population) were isolated. Cells from the peritoneal liquid adhered to the microscope slides for one hour in RPMI medium supplemented with 10% FCS and no antibiotics at 37° C., under humid atmosphere and 5% CO2. In all assays, cells were washed twice with cold solutions of 0.1 M PBS, pH 7.4, fixed with 3.7% formaldehyde in PBS for fifteen minutes and washed twice with PBS. Microscope slides were prepared in the PBS/glycerol (1:1) solution. Alternatively, non-fixed cells were washed twice with PBS and observed in the confocal microscope.
(§1) To analyze the specific binding of Cy3-crotamine to chromatin and centrosome (a pair of small organelles named the centrioles), the same experimental procedure, as described above, was used, the sole difference consisting in the pre-treatment of ES cells and murine embryonic fibroblasts with 1 μM of free crotamine, followed by treatment with the conjugated crotamine, Cy3-crotamine, for 15 minutes more. A similar experiment was conducted in vivo, by injecting in mice both the conjugated and the free crotamine. As a control, 1 μM of Cy3-crotamine was used and incubated for 15 minutes. For the confocal microscopy analysis, cells were prepared as described above. Experiments with animals were carried out according to the international ethical recommendations for the use of animals.

centrosome = experiment: Marker for centrosome; assay type: cell-based; settings: cells from the peritoneal liquid of mice and ES cells, FIG. 9
Procedure: as §1
Embryonic bodies, obtained according to the protocol as described above, after three days, adhered to small glass slides. On the following day, actively proliferating cells were simultaneously labeled with 5-bromo-2′-deoxyuridine (BrDU) and Cy3-crotamine. BrDU-labeled cell detection by the monoclonal antibody anti-BrDU (clone BU-1) was made according to manufacturer's recommendations (Amersham-Pharmacia Biotech). The secondary antibody was conjugated to the fluorescent compound FITC. […] Microscope slides were assembled in a PBS/glycerol solution (1:1) and analysed in a confocal microscope. […]

B16F10 cells tumor = experiment: Tumor labeling by cy3-crotamine; assay type: in vivo, Balb/c mouse; settings: 5 μg/animal intraperitoneal, 24 hours after
Procedure: The cells were maintained in Dulbecco's modified Eagle's cell culture medium (DMEM; Invitrogen, Carlsbad, Calif.) supplemented with 15% fetal calf serum (FCS; Invitrogen). The cells were kept at 37° C. with humidity and 5% CO2. After preparing a cell suspension with about 5×10^6 cells/ml of PBS [phosphate buffered solution], approximately 0.2 ml of this suspension was subcutaneously or endovenously (retroorbital injection) injected into each Balb/c mouse, of 4 to 6 weeks-old with body weight between 16 to 20 g. For negative control, the animals were injected with 0.2 ml of PBS. Before setting up the experiments, the animals were kept under 12 hour light-dark cycle, and were allowed to have water and food ad libitum. All animals were caged and handled under ethical conditions according to international rules of animal care, stated by the International Animal Welfare Recommendations, and in accordance with the Guidelines for the Use of Animals in Biochemical Research
About 8 to 12 days after subcutaneous injection of B16F10 cells, the visible ‘melanoma’ tumors were removed and analyzed.
To observe the accumulation of fluorescently labeled crotamine [Cy3-crotamine] into tumors, injected mice were treated by a single intraperitoneal injection of 5 μg of cy3-crotamine/animal. 24 hours after, the animals were sacrificed and the ‘melanoma’ tumors and internal tissues were removed and analyzed [frozen/Tissue-Tek and Paraplast block preparations]. The frozen slices were stained with DAPI and analyzed by confocal microscopy. […]
To observe the accumulation of fluorescently labeled crotamine [Cy3-crotamine] into tumors, injected mice were treated by a single intraperitoneal injection of 5 μg of cy3-crotamine/animal. 24 hours after, the animals were sacrificed and the internal tissues (including those showing metastasis) were removed and analyzed [frozen/Tissue-Tek and Paraplast block preparations]. The frozen slices were stained with DAPI and analyzed by confocal microscopy.

3T3 cell line = experiment: Transfection of GFP plasmid DNA by crotamine peptide fragments; assay type: cell-based, mouse; settings: for treatment time giving the best result: 24 and 48 hours tested
Procedure: 3T3 cells (spontaneously immortalized primary mouse fibroblasts) or COS-7 (cells derived from kidney of African green monkey) were plated (1.5×10^5) in 6-wells plate (dimension of 6×35 mm), containing DMEM culture medium with 10% fetal bovine serum (FBS) and […] L-glutamine, with no antibiotics, 1 or 2 days before the transfection until reaching 60% to 80% confluence of the plate. Transfection was performed in DMEM medium ([…]) with 2% FBS and 80 or 100 μM chloroquine. Aggregates (crotamine plus 2 μg DNA in 0.2 ml HBM) were added in each well, on the cells in culture. After five hours of incubation at 37° C., under humid atmosphere and 5% CO2, the medium was substituted with another one containing 10% FBS. In the control culture wells, DNA was added in the same concentration and they were processed in the same way of experimental samples. After 24 and 48 hours, cells were washed with PBSA and fixed with 3.7% formaldehyde. The transfection medium was substituted with DMEM medium, containing 10% FBS, and the transgenic expression was then evaluated 24 to 48 hours after the transfection. The efficiency of transfection as determined by DNA-peptide aggregates was compared with that obtained by using lipofectamine, following routine protocol.
Two peptides were synthesized based on crotamine sequence, e.g. two sequences corresponding to fragments of crotamine, i.e. Crot2-18 ([…] (SEQ ID NO: 3)), herewithin designated as peptide 1, and Crot27-39 ([…] (SEQ ID NO: 4)), herewithin designated as peptide 2. The ability and efficiency of these two peptides to transfect cells in vitro and in vivo were analysed. The same protocol which was used for natural crotamine, as described in Example 9 was followed: Peptides were mixed with the plasmid DNA containing the gene coding for GFP (green fluorescent protein). After forming the complex with DNA, peptides were put on Petri dishes containing 3T3 cell line and left in the CO2 oven for 24 and 48 hours. Subsequently, cells were fixed and the result of transfection was analysed by confocal microscopy. As controls, the same cells were transfected by using Lipofectamin, as well as the crotamine molecule with 42 amino acid residues.

[2] = three hours after intraperitoneal injection, CD-1 mice
[3] = subcutaneous injection of B16F10

Substance | time to typical paralysis response of the hind legs after injection (mice) | fluorescence in blastocysts (confocal microscopy) (blastocyts) | fluorescence in cytoplasm of mouse megakaryocyte ([1]; FIG. 5E-G) | fluorescence after pretreatment with non-labeled crotamine ([1]; cells pretreated with non-labeled crotamine, megakaryocyte, FIG. 5H) | signal in cytoplasm of living cells of the peritoneal liquid ([1]; living cells, FIG. 3A-C) | signal in nucleus of living cells of the peritoneal liquid ([1]; living cells, FIG. 3A-C) | signals on cells from the murine bone marrow [1, 2] | signals on cytoplasm and nucleus of cells from the peritoneal liquid [1, 2] | marking of the centrosome cycle (centrosome) | fluorescent signal inside the cell mass of B16F10 cells tumor (B16F10 cells tumor; endovenous injection of B16F10) | fluorescent signal inside the cell mass of B16F10 cells tumor (B16F10 cells tumor; [3]) | localization in tumor cells (overlay with DAPI) (B16F10 cells tumor; [3]) | signals from actively proliferating 3T3 cells compared with the original crotamine (3T3 cell line) | treatment time giving the best result (3T3 cell line; 3T3 cells) [h] | green fluorescence corresponding to GFP expression (3T3 cell line; 3T3 cells, in comparison with peptide 2, confocal microscopy)
Cy3-crotamine: crotamine conjugated to the fluorescent dye Cy3, a cyanine derivative (YKQCHKKGGHCFPKEKICLPPSSDFGKMDCRWRWKCCKKGSG; disulfide (positions not given here); not fully specified (bridges); ends not checked; also: Cy3 dye label, site not given here; UniProt Q9PWF3 23-64, looked up) | less than 15 minutes | intense fluorescence | weak fluorescence | Strong fluorescence restricted to the cytoplasm | strong | moderate | strong signals | strong signals | functions as a marker for the centrosome cycle | strong fluorescent signal | strong fluorescent signal | observed in the nucleus of the cells | – | – | –
KQCHKKGGHCFPKEKIC [peptide 1] | – | – | – | – | – | – | – | – | – | – | – | – | no distinctive signals | 48 | more intense green fluorescence
KMDCRWRWKCCKK [peptide 2] | – | – | – | – | – | – | – | – | – | – | – | – | no distinctive signals | 48 | –
